Measurements: US20220184003A1, “Formulations of Cannabidiol Derivatives and Their Use as Modulators of Cannabinoid Receptor Type 2 (CB2)” (EMERALD HEALTH PHARMACEUTICALS INC, priority 2019, published 2022)
Values after ≈ are worked out from the molar mass of the structure shown. Like-named read-outs stand apart in the source and are kept apart here.

Assays:
[1] = Solvent shift method in SGF and SIF; format: physicochemical; conditions: for API concentration in solution: SIF
Experimental: These experiments applied to a 5 mg/mL solution of VCE-004.8 in DMSO, of which 80 μL was added to 4 mL polymer solutions prepared in simulated intestinal fluid (SIF) and simulated gastric fluid (SGF). Subsequently the samples were incubated at 25° C. under continuous stirring, and after 0.5, 1, 2 and 4 hr, an aliquot was taken, filtered and analyzed by HPLC to determine the VCE-004.8 concentration in solution. Results are presented in FIG. 11 (SGF) and FIG. 12 (SIF).

[2] = system: TGFβ-induced Col1A2 gene transcription and collagen synthesis; test: TGFβ-induced fibrotic responses in vitro; format: cell-based
[3] = system: Theiler Murine Encephalomyelitis Virus-induced demyelmating disease model (TMEV); test: TMEV model; format: in vivo, mice
Description: 2) Theiler Murine Encephalomyelitis Virus-induced demyelmating disease model (TMEV) that mimics progressive forms of MS.

[4] = Solubility of VCE-004.8 and its phytosomes in buffer medium at various pH; format: physicochemical; conditions: 37 °C, thermodynamic from solid
Experimental: The solubility of Phytosome-VCE-004.8 was tested in buffer medium at various pH (1.2, 4, 5, 6, […] and 8.0). For each pH, independent supersaturated solutions of VCE-004.8 and its phytosomes were prepared. The suspensions w ere sonicated for 10 min and kept in a water bath at 37° C. for 2 hr. Then the final suspensions were filtered (with 0.45 PTFE disposable fitter) and the solutions were injected for HPLC analysis. […] The 1:2 ratio resulted to be slightly more soluble than the 1:1 ration, and the best behavior was shown at neutral and basic pH. Accordingly. Phytosome 1:2 was selected for following assessment of PK profile in rats (Formulation n°8). Phytosome 1:2 contained 24% of VCE-004.8 and was prepared in Methyl cellulose 1% in water for oral administration.

[5] = Stress test of VCE-004.8 drug substance; format: physicochemical
Experimental: A stress test was performed concluding that VCE-004.8 drug substance is stable for 3 days at 65° C.+/−5° C. in glass vials. […] A short-term stability study at 40° C. was completed with indecisive results due to the early development stage of the impurity method.

physchem = format: physicochemical; conditions: for solubility at 24 h / solubility at 24 hr: thermodynamic from solid
Experimental: A quantitative thermodynamic solubility determination on VGE-004.8 was performed. Suspensions of VCE-004.8 were prepared in different pharmaceutical vehicles and organic solvents. The organic solvents, lipid and co-solvent vehicles consisted of pure solvent or lipid, while the cyclodextrin solutions were prepared in phosphate buffer pH 7.0. […] The concentration of VCE-004.8 in solution was determined by HPLC analysis.

CB1 receptor = CB1 receptor (Homo sapiens, UniProt P21554); test: Receptor screening study, CB1 receptor affinity; format: binding
[6] = system: cuprizone/rapamycin (C/R) mouse model; test: Cuprizone/rapamycin model, myelin assessment in grey and white matter; format: in vivo, Male C57BL/6J
Experimental: Myelin assessment in grey and white matter was evaluated via: (1) PLP staining and density in the hippocampus and cortex; and (2) PPD staining and manual counts in the corpus callosum.
Male C57BL/6J (n=5 or 12/group) were treated for 12 weeks with C/R to cause demyelination of white and gray matter regions of the brain. […] Thereafter, the brains were harvested and processed for immunohistochemical staining and quantification of myelinated axons in gray matter (hippocampus (HIP), cerebral cortex (CTX)) by proteolipid protein (PLP) staining and white matter (corpus callosum CC)) by paraphenylenediamine (PPD) staining.

[7] = Stability of VCE-004.8 during phytosomization (reflux in ethyl acetate); format: physicochemical; conditions: area %
Experimental: FIG. 8 depicts a stability of VCE-004.8 during phytosomization, at reflux in ethyl acetate at different times (45 min, 6 hr and 24 hr).
A preliminary investigation of the compound stability gave indication that the active principle is stable in the process conditions, although an impurity peak not detected in the starting material and almost neglectable at […], increased after 6 hr (1.7% in area %) and grew after 24 hr (6.2% in area %), as shown in FIG. 8.

[8] = Turbidimetric aqueous solubility (estimated precipitation range); format: physicochemical; conditions: aqueous solubility test at 37° C.
[9] = oral 5, 10, 20 mg/kg/day for 6 weeks, vs vehicle control

Chain of CB1 receptor (P21554 whole entry): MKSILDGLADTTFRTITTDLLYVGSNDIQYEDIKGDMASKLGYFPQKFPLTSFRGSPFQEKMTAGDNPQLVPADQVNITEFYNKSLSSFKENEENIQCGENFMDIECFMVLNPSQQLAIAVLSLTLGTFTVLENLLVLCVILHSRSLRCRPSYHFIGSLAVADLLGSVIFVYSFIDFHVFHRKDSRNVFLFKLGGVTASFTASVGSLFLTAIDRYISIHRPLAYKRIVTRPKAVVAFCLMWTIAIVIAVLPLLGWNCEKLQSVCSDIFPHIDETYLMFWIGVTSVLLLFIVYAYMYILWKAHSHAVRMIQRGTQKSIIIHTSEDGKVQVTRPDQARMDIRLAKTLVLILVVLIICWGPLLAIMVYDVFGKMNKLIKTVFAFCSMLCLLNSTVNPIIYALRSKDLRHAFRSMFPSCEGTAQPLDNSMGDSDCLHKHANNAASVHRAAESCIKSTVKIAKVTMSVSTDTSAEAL

In the case of `C=C(C)C1CCC(C)=C[C@H]1C1=C(O)C(=O)C(CCCCC)=C(NCc2ccccc2)C1=O` (stereo partly drawn) [VCE-004.8, (1′R,6′R)-3-(Benzylamine)-6-hydroxy-3′-methyl-4-pentyl-6′-(prop-1-en-2-yl)[1,1′-bi(cyclohexane)]-2′,3,6-triene-2,5-dione], the “VCE-004.8 concentration in solution” value ([1]; SGF, TGPS solution, after 4 hr, 25° C.) is reported as “about 0.03 mg-mL”, the “API concentration in solution” value ([1]; Eudragit L100, supersaturation for at least 1 hr) is reported as “approximately 60 μg/mL” and the “API concentration in solution” value ([1]; PVP K30, supersaturation for at least 1 hr) is reported as “approximately 60 μg/mL”. The “API concentration in solution” value ([1]; all the HPMC derivates (except for HPMC as is), from 0.5 to 1 hr) was “approximately 60 μg/mL”, the “TGFβ-induced Col1A2 gene transcription and collagen synthesis” value [2] was “inhibited” and the TGFβ-mediated myofibroblast differentiation [2] was “inhibited”. The wound-healing activity [2] was “impaired”, the axonal disorganization ([3]; TMEV mice) was “prevented” and the “clinical severity and neuropathology” value ([3]; TMEV model, actimeter test) was “attenuated”. The “microglial reactivity and infiltration of inflammatory cells” value ([3]; TMEV-infected mice) was “significantly reduced”, the motor deficits ([3]; mice infected with Theiler's virus) was “ameliorated” and the demyelination ([3]; spinal cord of TMEV mice) was “significantly reduced”. The “number of infiltrated CD4+ T cells and immune cells” value ([3]; spinal cord of TMEV mice) was “reduced”, the solubility thermodynamic at 2 h ([4]; pH 1.2, simulated gastric fluid) was 0.005 µg/mL (≈ 0.0115 µM) and the solubility thermodynamic at 2 h ([4]; pH 4.5, aqueous buffer) was 0.005 µg/mL (≈ 0.0115 µM). The solubility thermodynamic at 2 h ([4]; pH 6.8, aqueous buffer) was 0.003 µg/mL (≈ 0.00692 µM), the solubility thermodynamic at 2 h ([4]; pH 7.4, aqueous buffer) was 0.001 µg/mL (≈ 0.00231 µM) and the solubility thermodynamic at 2 h ([4]; pH 8, aqueous buffer) was 0.001 µg/mL (≈ 0.00231 µM). For the same compound, the “stress test: stable for” value ([5]; 65° C.+/−5° C. in glass vials) was 3 days, the “temperatures at which degradation of the product was observed” value ([5]; stress test) was “above 65 °C” and the Solubility class (physchem) was “practically insoluble”. It also gave a solubility at 24 h (physchem; 25 °C, oil or lipid, Solubility) of 35700 µg/mL (≈ 82300 µM), a solubility at 24 h (physchem; 25 °C, oil or lipid, Solubility class (Ph. Eur.)) of 33000 to 100000 µg/mL (≈ 76100 to 231000 µM) and a solubility at 24 h (physchem; 25 °C, pH 1, simulated gastric fluid, Solubility) of under 8 µg/mL. The solubility at 24 h (physchem; 25 °C, pH 1, simulated gastric fluid, Solubility class (Ph. Eur.)) was under 100 µg/mL, the solubility at 24 h (physchem; 25 °C, pH 2, aqueous buffer, Solubility) was under 8 µg/mL and the solubility at 24 h (physchem; 25 °C, pH 5, aqueous buffer, Solubility) was under 8 µg/mL. For the same compound, the solubility at 24 h (physchem; 25 °C, pH 5, aqueous buffer, Solubility class (Ph. Eur.)) was under 100 µg/mL, the solubility at 24 hr (physchem; 25 °C, pH 7, aqueous buffer, Solubility) was under 8 µg/mL and the solubility at 24 hr (physchem; 25 °C, pH 7, aqueous buffer, Solubility class (Ph. Eur.)) was under 100 µg/mL. It also gave a solubility at 24 h (physchem; 25 °C, pH 7, aqueous with cosolvent or surfactant or cyclodextrin, Solubility class (Ph. Eur.)) of under 100 µg/mL, a solubility at 24 hr (physchem; 25 °C, pH 9, aqueous buffer, Solubility) of under 8 µg/mL and a solubility at 24 hr (physchem; 25 °C, pH 9, aqueous buffer, Solubility class (Ph. Eur.)) of under 100 µg/mL. For the same compound, the solubility at 24 h (physchem; 37 °C, oil or lipid, Solubility) was 23700 µg/mL (≈ 54700 µM), the “Solubility class (Ph. Eur.)” value (physchem; pH 2) was “Practicalty insoluble” and the Solubility class (physchem; pH 7) was “practically insoluble”. For the same compound, the “affinity for the CB1 receptor” value (CB1 receptor; at a concentration of 10 μM (4336 ng/mL)) was “did not show affinity”, the “affinity for the CB1 receptor” value (CB1 receptor; receptor screening study) was “no detectable affinity” and the “levels of myelinated axons in white matter (corpus callosum), dose relation” value [6] was “dose related effect”. For the same compound, the “area of PLP staining / myelination in the cortex” value [6, 9] was “no significant increase”, the “area of PLP staining / myelination in the hippocampus” value [6, 9] was “no significant increase” and the impurity peak ([7]; after 6 hr at reflux in ethyl acetate) was 1.7%. The impurity peak ([7]; after 24 hr at reflux in ethyl acetate) was 6.2%, the “Estimated Precipitation Range, Calculated Mid-range” value [8] was under 6.5 µM and the “Estimated Precipitation Range, Lower Bound” value [8] was under 1 µM. The “Estimated Precipitation Range, Upper Bound” value [8] was 6.5 µM.
